For assay [1], the target named is T1, human carbonic anhydrase II (hCAII) (Homo sapiens, UniProt P00918).
T1 construct: gene CA2
The assay is described as follows: fluorescence turn-on titration with hCAII in PBS; displaced by ethoxzolamide. The assay is classed as binding.

Assay [2] has as its target T2, O6-methylguanine-methyltransferase (MGMT) (Homo sapiens, UniProt P16455).
T2 construct: recombinant MGMT, about 26 kDa
T2 sequence (P16455 1-207): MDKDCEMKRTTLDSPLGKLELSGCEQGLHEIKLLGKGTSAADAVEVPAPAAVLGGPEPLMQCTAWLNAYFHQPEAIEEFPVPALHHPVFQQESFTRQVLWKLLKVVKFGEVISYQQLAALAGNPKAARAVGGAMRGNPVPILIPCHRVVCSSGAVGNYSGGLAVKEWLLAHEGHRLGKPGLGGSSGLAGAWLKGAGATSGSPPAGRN
Kind of assay: fluorescence turn-on kinetics with recombinant MGMT, SDS-PAGE in-gel fluorescence, Job's plot; also HeLa S3 lysate labeling. The class given is binding. Conditions: read-out: fluorescence turn-on kinetics with recombinant MGMT, SDS-PAGE in-gel fluorescenc.

The structures appear in SMILES notation.

In general, Kd refers to the concentration at which binding is half-saturated. Higher therefore signals a looser complex.

With `N#CC(=Cc1cc2c3c(c1)CCCN3CCC2)C(=O)NCc1ccc(S(N)(=O)=O)cc1` [SA-CCVJ], in assay [1], the Kd is about 70 nM. As for `N#C/C(=C\c1cc2c3c(c1)CCCN3CCC2)C(=O)NCc1ccc(COc2nc(N)nc3[nH]cnc23)cc1` [BG-CCVJ], the kinact/KI in assay [2] is about 715 M⁻¹ s⁻¹.

(Values after publication PMC5515057, “Protein sensing in living cells by molecular rotor-based fluorescence-switchable chemical probes” (Chemical Science, 2015).)
